Assay results published in patent US12180139B2, “Method for preparing aminoalkanoic acid derivative containing biphenyl group” (AMTIXBIO CO., LTD., priority 2019, dated 2024).

Columns and labels:
[1] = tested on: Candida albicans; settings: 50 or 100 μg/mL for 30 minutes; versus Efinaconazole, Tavaborole, Terbinafine, Ciclopirox
Procedure: To evaluate fast-acting effects of Compound 74, the growth of Candida albicans was studied by treating Candida albicans with Compound 74 or commercially available drug of Efinaconazole, Tavaborole, Terbinafine, or Ciclopirox at the same concentration for the same period of time. Specifically, Candida albicans were prepared at a concentration of 2.5×10^3 cfu/ ? and aliquoted at 195 ? /well into 96-well plates. Subsequently, Candida albicans cells in 96-well plate were treated with Compound 74 or each of the commercially available comparative drugs (50 μg/ ? or 100 μg/ ? ) for 30 minutes, respectively. Next, Compound 74 treated fungal cells were seeded on YPD media (Sigma-Aldrich), and the number of single colonies grown was counted.

[2] = tested on: C. glabrata; settings: RPMI1640 broth, 35° C., 48 hours, visual reading; expressed as a range value
Procedure: (§3) An in vitro antifungal susceptibility test was performed in accordance with the US Clinical and Laboratory Standards Institute (CLSI) guidelines to measure the degree of antifungal activity of the compounds synthesized in the Preparation Examples against opportunistic pathogenic fungi. […] The MIC value (μg/ ? ) is expressed as a range value. Specifically, Candida species and Cryptococcus neoformans were incubated in a Sabouraud dextrose agar (SDA) (Sigma-Aldrich) solid medium for 24 and 48 hours, respectively to obtain single colonies. The obtained single colonies were suspended in 0.85% physiological saline to prepare fungal cell suspension (1 to 5×10^6 cells/ ? ). Fungal cells 2000-fold diluted in RPMI1640 broth (Sigma-Aldrich) were seeded on 96-well plates (5×10^2 to 2.5×10^3 cells/ ? , 195 ? /well). Serial two-fold dilutions (128, 64, 32, 16, 8, 4, 2, 1, and 0.5 μg/ ? ) of compounds were prepared by diluting the compounds synthesized according to the above preparation examples. Then, 5 ? from each dilution was added to the well of the 96-well plate containing fungal cell suspension to give a final suspension of 200 ? per well. […] As a positive control, amphotericin B (AMB), which is highly toxic to the human body but is known as a representative antifungal agent, was used.

[3] = tested on: E. coli (−); assay: Antibacterial MIC test (CLSI); assay type: cell-based; settings: MHB liquid medium, 37° C., 24 hours
Procedure: (§1) The MIC test was conducted in accordance CLSI guidelines. […] As a positive control, Nofloxacin and Vancomycin were used.

[4] = tested on: B. cereus (+); assay: Antibacterial MIC test (CLSI); assay type: cell-based; settings: MHB liquid medium, 37° C., 24 hours
Procedure: as §1

[5] = tested on: L. monocytogenes (+); assay: Antibacterial MIC test (CLSI); assay type: cell-based; settings: MHB liquid medium, 37° C., 24 hours
Procedure: as §1

[6] = tested on: B. coagulans (+); assay: Antibacterial MIC test (CLSI); assay type: cell-based; settings: MHB liquid medium, 37° C., 24 hours
Procedure: as §1

[7] = tested on: P. acnes (+); assay: Antibacterial MIC test (CLSI); assay type: cell-based; settings: MHB liquid medium, 37° C., 24 hours
Procedure: as §1

[8] = tested on: B. subtilis (+); assay: Antibacterial MIC test (CLSI); assay type: cell-based; settings: MHB liquid medium, 37° C., 24 hours
Procedure: as §1

[9] = tested on: M. luteus (+); assay: Antibacterial MIC test (CLSI); assay type: cell-based; settings: MHB liquid medium, 37° C., 24 hours
Procedure: as §1

[10] = tested on: S. aureus enterica (−); assay: Antibacterial MIC test (CLSI); assay type: cell-based; settings: MHB liquid medium, 37° C., 24 hours
Procedure: as §1

[11] = tested on: S. epidermidis (+); settings: MHB liquid medium, 37° C., 24 hours
[12] = tested on: S. aureus (+); settings: MHB liquid medium, 37° C., 24 hours
[13] = tested on: T. rubrum; settings: 0.5- to 16-fold MIC, 0 to 120 hours; versus Efinaconazole, Amorolfine, Terbinafine, Ciclopirox, Amphotericin B
Procedure: Specifically, T. rubrum cells (6×10^3 cfu/ ? ) were prepared and aliquoted at 195 ? /well into 96-well plates.

[14] = tested on: C. albicans; settings: RPMI1640 broth, 35° C., 48 hours, visual reading; expressed as a range value
Procedure: as §3

[15] = tested on: T. mentagrophytes (KCCM60449); settings: 35° C., 72 hours
Procedure: (§2) Fungal cells were spread on YPD solid media (Sigma-Aldrich) and then aliquoted into the wells of the 96-well plates (2.5×10^3 microconidia/ ? for T. rubrum and T. mentagrophytes species or was 2.5×10^3 cfu/ ? for Candida albicans, Candida glabrata and Cryptococcus neoformans species, 195 ? /well). […] The compound-treated fungal cells were incubated in a 35° C. incubator for 48 hours (Candida species) and for 72 hours (C. neoformans and Trichophyton species), respectively.

[16] = tested on: C. albicans 12-99 (Mutant); settings: 35° C., 48 hours
Procedure: as §2

[17] = tested on: C. neoformans; settings: 35° C., 72 hours; n = 10
Procedure: as §2

[18] = tested on: C. glabrata; settings: 35° C., 48 hours; n = 30
Procedure: as §2

[19] = tested on: C. tropicalis; settings: 35° C., 48 hours
Procedure: as §2

[20] = tested on: C. albicans ATCC90028 (WT); settings: 35° C., 48 hours; n = 30
Procedure: as §2

[21] = tested on: T. rubrum (KCCM60450); settings: 35° C., 72 hours
Procedure: as §2

[22] = tested on: T. rubrum (KCCM60443); settings: 35° C., 72 hours
Procedure: as §2

[23] = tested on: A. fumigatus
Procedure: as §2

[24] = tested on: A. fumigatus; settings: visual reading; expressed as a range value
[25] = tested on: C. neoformans; settings: RPMI1640 broth, 35° C., 72 hours, visual reading; expressed as a range value
Procedure: as §3

[26] = tested on: Candida albicans biofilm; settings: 4, 8, 16 and 32 μg/mL, 24 hours after treatment; versus Caspofungin, Amphotericin B, Efinaconazole
[27] = tested on: MRSA; assay: Antibacterial MIC test (CLSI); assay type: cell-based, Methicillin-resistant Staphylococcus aureus; settings: MHB liquid medium, 37° C., 24 hours
Procedure: as §1

Compound: CCCC(N)C(=O)NCCc1ccc(-c2ccc(Cl)c(Cl)c2)cc1.Cl (racemic) [Compound 74, (R)/(S)-2-amino-N-(2-(3′,4′-dichloro-[1,1′-biphenyl]-4-yl)ethyl)pentanamide hydrochloride]
- fast-acting effects (number of single colonies grown, FIG. 1) [1]: excellent fast-acting effects
- MIC (μg/mL) C. glabrata [2]: 0.5~4 μg/mL
- MIC E. coli (−) [3]: 32 µg/mL
- MIC B. cereus (+) [4]: 16 µg/mL
- MIC L. monocytogenes (+) [5]: 8 µg/mL
- MIC B. coagulans (+) [6]: 2 µg/mL
- MIC P. acnes (+) [7]: 8 µg/mL
- MIC B. subtilis (+) [8]: 8 µg/mL
- MIC M. luteus (+) [9]: 8 µg/mL
- MIC S. aureus enterica (−) [10]: >32 µg/mL
- MIC S. epidermidis (+) [11]: 8 µg/mL
- MIC S. aureus (+) [12]: 8 µg/mL
- fungicidal effects (number of single colonies grown, FIG. 2) [13]: exhibited fungicidal effects at the MIC concentration
- MIC (μg/mL) C. albicans [14]: 0.5~4 μg/mL
- MIC T. mentagrophytes (KCCM60449) [15]: 2~8 μg/mL
- MIC C. albicans 12-99 (Mutant) [16]: 2~8 μg/mL
- MIC C. neoformans [17]: 2~4 μg/mL
- MIC C. glabrata [18]: 2~4 μg/mL
- MIC C. tropicalis [19]: 2~4 μg/mL
- MIC C. albicans ATCC90028 (WT) [20]: 2~4 μg/mL
- MIC T. rubrum (KCCM60450) [21]: 2~4 μg/mL
- MIC T. rubrum (KCCM60443) [22]: 1~4 μg/mL
- MIC A. fumigatus [23]: 2~8 μg/mL
- MIC (μg/mL) A. fumigatus [24]: 0.5~4 μg/mL
- MIC (μg/mL) C. neoformans [25]: 0.5~4 μg/mL
- biofilm disruption (growth of Candida albicans, FIG. 3) [26]: remarkably excellent growth inhibitory effects on Candida albicans through biofilm disruption
- MIC MRSA [27]: 8 µg/mL
